US5321030A, “Creatine analogs having antiviral activity” (priority 1991, dated 1994)
In brackets after ≈: the same amount, converted by molar mass. Like-named read-outs stand apart in the source and are kept apart here.

Assays:
[1] = Cytotoxicity in plaque reduction assay, CV-1 cells; type: cell-based, African Green Monkey; settings: monkey, Table 9B, read-out: CD50 (the source's name)
[2] = Cytotoxicity in plaque reduction assay, Hs68 cells; type: cell-based; settings: human, Table 5, previous data, read-out: CD50 (the source's name)
Description: (§1) Cytotoxicity was determined by examination of cells (located away from plaques) in infected wells which had been treated with drug.

[3] = test system: HCMV, strain C8704 (DHPG resistant); assay: microbe, parasite or virus in culture; type: cell-based, Human Cytomegalovirus; design: TI50 (CD50 ÷ ED50): unit not given beside the values; settings: for # Plaques: virus control 91.0 ± 8.4
[4] = test system: Varicella-Zoster Virus, strain Oka; assay: microbe, parasite or virus in culture; type: cell-based; design: TI50 (CD50 ÷ ED50): unit not given beside the values
[5] = test system: HCMV, strain C8805-37 (DHPG resistant); assay: microbe, parasite or virus in culture; type: cell-based, Human Cytomegalovirus; design: TI50 (CD50 ÷ ED50): unit not given beside the values; settings: for # Plaques: virus control 11.5 ± 2.1
[6] = test system: Guinea Pig Cytomegalovirus, Strain 22122; assay: CPE reduction assay, guinea pig cytomegalovirus in GPE cells; type: cell-based; design: TI50 (CD50 ÷ ED50): unit not given here; settings: for Average CPE: virus controls 4.0
in vitro = settings: guinea pig, gpe cells
[7] = Cytotoxicity in plaque reduction assay, MRC-5 cells; type: cell-based, human; settings: human, mrc-5 cells, read-out: CD50 (the source's name)
Description: as §1

HCMV, strain AD-169 = assay: Plaque reduction assay, HCMV strain AD-169; type: cell-based, Human Cytomegalovirus; design: TI50 (CD50 ÷ ED50): unit not given here; settings: for EC50: read-out: ED50 (the source's name)
[8] = Human betaherpesvirus 5, MRC5, DHPG 1.0 μg/ml, read-out: % Reduction
[9] = Human betaherpesvirus 5, MRC5, DHPG 3.2 μg/ml, read-out: % Reduction
[10] = Human betaherpesvirus 5, MRC5, DHPG 10 μg/ml, read-out: % Reduction
[11] = Human betaherpesvirus 5, MRC5, DHPG 32 μg/ml, read-out: % Reduction
[12] = Human alphaherpesvirus 3, CV-1, read-out: % Reduction
[13] = Human alphaherpesvirus 3, MRC5, read-out: % Reduction

Compound: Nc1nc(O)c2ncn(COC(CO)CO)c2n1 [DHPG, dihydroxypropoxymethylguanine, reference compound]
- CC50 [1]: > 10 µg/mL
- CC50 [2]: > 1000 µg/mL
- # Plaques ([3]; DHPG 1.0 μg/ml): 92.5
- # Plaques ([3]; DHPG 3.2 μg/ml): 85
- # Plaques ([3]; DHPG 10 μg/ml): 80
- # Plaques ([3]; DHPG 32 μg/ml): 91
- inhibition at 1 µg/mL [3, 8]: 0%
- inhibition at 3.2 µg/mL [3, 9]: 0%
- inhibition at 10 µg/mL [3, 10]: 0%
- inhibition at 32 µg/mL [3, 11]: 41%
- EC50 ([3]; Human betaherpesvirus 5, MRC5, MRC-5 cells, Table 6, read-out: ED50 (the source's name)): > 32 µg/mL
- EC50 ([3]; Human betaherpesvirus 5, MRC5, MRC-5 cells, Table 6, read-out: ED50, approximate value in parentheses): ~41 µg/mL (≈ 161 µM)
- TI50 (CD50 ÷ ED50) ([3]; MRC-5 cells, Table 6): > 24
- # Plaques ([4]; CV-1 cells, DHPG 3.2 μg/ml, virus control 70.25 ± 6.9): 77
- # Plaques ([4]; CV-1 cells, DHPG 10 μg/ml, virus control 70.25 ± 6.9): 63
- inhibition at 3.2 µg/mL [4, 12]: 0%
- inhibition at 10 µg/mL [4, 12]: 10%
- EC50 ([4]; Human alphaherpesvirus 3, CV-1, read-out: ED50): > 10 µg/mL
- inhibition at 0.32 µg/mL [4, 13]: 0%
- inhibition at 1 µg/mL [4, 13]: 0%
- inhibition at 3.2 µg/mL [4, 13]: 0%
- inhibition at 10 µg/mL [4, 13]: 62%
- EC50 ([4]; Human alphaherpesvirus 3, MRC5, read-out: ED50): 8 µg/mL (≈ 31.3 µM)
- TI50 (CD50 ÷ ED50) ([4]; MRC-5 cells, Table 9A): > 125
- # Plaques ([4]; MRC-5 cells, DHPG 0.32 μg/ml, virus control 32.7 ± 9.3): 24.5
- # Plaques ([4]; MRC-5 cells, DHPG 1.0 μg/ml, virus control 32.7 ± 9.3): 37
- # Plaques ([4]; MRC-5 cells, DHPG 3.2 μg/ml, virus control 32.7 ± 9.3): 25
- # Plaques ([4]; MRC-5 cells, DHPG 10 μg/ml, virus control 32.7 ± 9.3): 12.5
- # Plaques ([5]; DHPG 1.0 μg/ml): 13
- # Plaques ([5]; DHPG 3.2 μg/ml): 6.5
- # Plaques ([5]; DHPG 10 μg/ml): 10
- # Plaques ([5]; DHPG 32 μg/ml): 4.5
- inhibition at 1 µg/mL [5, 8]: 0%
- inhibition at 3.2 µg/mL [5, 9]: 43%
- inhibition at 10 µg/mL [5, 10]: 0%
- inhibition at 32 µg/mL [5, 11]: 61%
- EC50 ([5]; Human betaherpesvirus 5, MRC5, MRC-5 cells, Table 7, read-out: ED50 (the source's name)): 11 µg/mL (≈ 43.1 µM)
- TI50 (CD50 ÷ ED50) ([5]; MRC-5 cells, Table 7): > 91
- EC50 ([6]; Caviid betaherpesvirus 2, GPE cells, Table 3, read-out: ED50 (the source's name)): 18.4 µg/mL (≈ 72.1 µM)
- Average CPE ([6]; DHPG 1.0 μg/ml): 4.0
- Average CPE ([6]; DHPG 3.2 μg/ml): 4.0
- Average CPE ([6]; DHPG 10 μg/ml): 3.5
- Average CPE ([6]; DHPG 32 μg/ml): 0.7
- Average CPE ([6]; DHPG 100 μg/ml): 0
- Average CPE ([6]; DHPG 320 μg/ml): 0
- Average CPE ([6]; DHPG 1000 μg/ml): 0
- TI50 (CD50 ÷ ED50) ([6]; GPE cells, Table 3): > 54
- CC50 (in vitro): > 1000 µg/mL
- CC50 ([7]; Table 4): > 100 µg/mL
- CC50 ([7]; Table 6, previous data): > 1000 µg/mL
- CC50 ([7]; Table 7, previous data): > 1000 µg/mL
- CC50 ([7]; Table 9A, previous data): > 1000 µg/mL
- TI50 (CD50 ÷ ED50) (HCMV, strain AD-169; Hs-68 cells, Table 5): > 526
- # Plaques (HCMV, strain AD-169; Hs-68 cells, DHPG 1.0 μg/ml, virus control 74.2 ± 8.6): 68.5
- # Plaques (HCMV, strain AD-169; Hs-68 cells, DHPG 3.2 μg/ml, virus control 74.2 ± 8.6): 7
- # Plaques (HCMV, strain AD-169; Hs-68 cells, DHPG .32 μg/ml, virus control 74.2 ± 8.6): 100.5
- EC50 (HCMV, strain AD-169; Human betaherpesvirus 5, AD169, Hs68, Hs-68 cells, Table 5): 1.9 µg/mL (≈ 7.44 µM)
- EC50 (HCMV, strain AD-169; Human betaherpesvirus 5, AD169, MRC5, MRC-5 cells, Table 4): 3.7 µg/mL (≈ 14.5 µM)
- TI50 (CD50 ÷ ED50) (HCMV, strain AD-169; MRC-5 cells, Table 4): > 27
- # Plaques (HCMV, strain AD-169; MRC-5 cells, DHPG 3.2 μg/ml, virus control 26.4 ± 5.2): 15
- # Plaques (HCMV, strain AD-169; MRC-5 cells, DHPG 10 μg/ml, virus control 26.4 ± 5.2): 0.5
- # Plaques (HCMV, strain AD-169; MRC-5 cells, DHPG 32 μg/ml, virus control 26.4 ± 5.2): 0
- # Plaques (HCMV, strain AD-169; MRC-5 cells, DHPG 100 μg/ml, virus control 26.4 ± 5.2): 0
